Laboratory results published in US20250381274A1 (priority 2022, published 2025).
“Also recorded” adds a separate entry of the source.

Tested on: cornea
Test: Corneal topography (EyeSys), effective refractive power of ex vivo eyes crosslinked under coverslip loading
Design: species or system rabbit
Conditions: for immediate diopter drop (words) / sustained diopter drop (words): 20% ribose 1 hr + UVA 365 nm lamp up to 3 hrs; for immediate diopter drop (words): coverslip (Hypothesis 2B / Group3); for sustained diopter drop (words): coverslip, final time point 8-10 hours; for immediate diopter drop (decrease in effective refractive power): immediately after irradiation
Text: • 5 additional rabbits (Paired treated and control for OS/OD) • Sample preparation for ex vivo EyeSys topography: • connected to IV system (˜15 mm H2O) • Epithelium removed • CxL during mechanical deformation introduced by the coverslip • Point1: 1 hr after IV stabilization • Point2: after applying 20% (1.7M) Ribose, then 20% Dextran • Point3: after flattening/treatment (˜2 hrs) • (flattened 8-10 mm) • Point4: ˜1 hr after point3 • Point5: last point (might need trypan blue on top) • Laser Treatments: • Fidelity II, 1069 nm, 39fs, 450 mW • Focusing: no (deliberate) spark around touching the tissue • ZEISS 40X, NA=0.1463 • Z: increments 20 μm, 5 layers (several intervals) • 1 stlayer 15 μm below surface of focus sparking • XY: 10 μm zigzag grid, 3 mm radius circle • Motor speed 2.6 mm/s, full circle treatments: ˜25*5 mins • Representative OCT and visual changes are shown in appended FIGS. 1-25.
• 3 additional rabbits (Paired treated and control for OS/OD) • connected to IV system, stabilize for ˜1 hr • Trypan Blue inside the anterior chamber beneath cornea • CxL during mechanical deformation introduced by the coverslip • (˜40%-60% flattened by coverslip from the total diameter) • Treatment Protocol-1 hr submerged in 20% w/v Ribose in 20% Dextran • up to 3 hrs of UVA lamp (visible flattening as an indicator for duration)
Corneal Topography: For Group3 eyes, using an EyeSys Vista handheld topographer, the effective refractive power (Eff.Rp) was collected at multiple time points in a 10-hour period after eye harvest. The immediate diopter drop was defined as the difference between the initial baseline Eff.Rp and the Eff.Rp immediately after CXL. The sustained diopter drop was defined as the difference between the initial baseline Eff.Rp and the final Eff.Rp. Statistical Analysis: One-tailed paired t-tests were used for statistical analysis of Eff.Rp (Group3); two-tailed paired t-tests were used for biomechanical comparison (Group1 and 2). A p-value smaller than 0.05 was considered statistically significant.
Corneal Topography and OCT: The EyeSys topography effective refractive power (Eff.Rp) and OCT images were collected at multiple time points in a 10-hour period after eye harvest. Diopter drop after CxL was calculated and compared relative to the baseline Eff.Rp.
In Group2 (n=15 rabbits), to assess corneal flattening, 24 intact eyeballs (12 rabbits) were enucleated and placed into a custom-build holder such that one eye was subject to ROS-Glycation-CXL, and the other served as a paired control. After 1 hr incubation in 20% ribose PBS, all apical eyeballs were pressed with a coverslip until the contact between the cornea and the coverslip reached approximately 3 mm in diameter until the treatment finished. Group 2A's (n=6 pairs) treated eyes were exposed to 1.5 hours of UVA lamp irradiation, whereas Group 2 B's (n=6 pairs) treated eyes were exposed to 3 hours of UVA lamp irradiation. Intraocular pressure was kept at 18-20 mm H2O through an IV system with needles connecting at the posterior side of the eyeball. In order to investigate the mechanical difference between the 1.5 hrs and 3 hrs irradiation groups, Group 2C's (n=3 pairs) corneas went through similar preparations as Group 1 corneas did such that the two treatments with different irradiation times were applied to the pair of eyes from the same animal.
Effective refractive power (Eff. RP) was measured using a handheld topographer (EyeSys Vista, Teas, USA) for Group 2A and 2B eyes. The first point measured at 0.5-1 hour represents the baseline initial refractive power after stabilization at the controlled intraocular pressure before any alterations. The second point measured at 2 hours represents the refractive power after the ribose solution application. The third point at 3.5 hours for Group 2A or 5 hours for Group 2B represents refractive power after ROS-Glycation-CXL or loading for control eyes. […]

[1] = 20% ribose + 1069 nm femtosecond laser 450 mW, coverslip deformation (Hypothesis 2A)

In the case of `O=C[C@H](O)[C@H](O)[C@H](O)CO` [ribose], the “immediate diopter drop (words)” value is reported as “significant Eff.RP diopter drop”, the “immediate diopter drop (words)” value (listed as Ribose) is reported as “diopter drop immediately after treatment” and the “sustained diopter drop (words)” value is reported as “statistically significant sustained Eff.RP diopter drop; also recorded: stably sustained”. The “sustained diopter drop (words)” value (listed as Ribose) was “persistent at the 8-10 hours time point”, the “immediate diopter change” value [1] was “diopter drop immediately after treatment” and the “persistence of diopter change” value [1] was “not persistent and gradually recovered to the baseline”. For the same molecule, the “immediate diopter drop (decrease in effective refractive power)” value (Group 2A: 20% ribose 1 hr, 1.5 hr 365 nm UVA lamp under coverslip flattening) was 5 diopters, the “sustained diopter drop (decrease in effective refractive power)” value (Group 2A: 1.5 hr UVA treatment, 10 hr time point) was 2.5 diopters and the “immediate diopter drop (decrease in effective refractive power)” value (Group 2B: 20% ribose 1 hr, 3 hr 365 nm UVA lamp under coverslip flattening) was 10 diopters. The “refractive power drop, crosslinked vs control pairs, immediate and sustained” value (Groups 2A and 2B: ribose + 1.5 hr or 3 hr UVA lamp with coverslip loading) was “sustained drop of refractive power; also recorded: Significant immediate and sustained refractive power drop differences”.
